Earlier results in publication PMC2686615 (International Immunology, 2009).

How the values were obtained:
[1] = system: HLA-DQ transgenic mice; settings: immunization with peptides; cited from earlier work
[2] = system: NOD.DQ8 mice; settings: oral response to gliadin, 26 peptides tested; cited from earlier work

Sequence | T cell response [1] | T cell response [2]
ENVVVKVYTV [allergen P2 102–110] | elicited T cell responses | –
QSTYQLLQE [gliadin 147–155] | – | negative
VVTVKVMGD [allergen P2 105–113] | failed to stimulate T cell responses | –
